Data: patent publication US20060003348A1, “Omi PDZ modulators” (GENENTECH. INC., priority 2004, published 2006)
Like-named read-outs stand apart in the source and are kept apart here. Values belong to the compound of their own block, whether it stands above or below them. Where a SMILES comes first, the peptide text is derived from it. Where no end group is shown, it is not given here.

Target: T1, Omi PDZ (GST-Omi PDZ fusion protein) (Homo sapiens, UniProt O43464)
T1 construct: DNA fragment encoding hOmi PDZ domain was cloned into BamHI/XhoI sites of pGEX6P-3 plasmid, creating a GST-hOmiPDZ fusion protein; made in house; host or cells: E. coli BL21(DE3), plasmid pGEX6P-3
T1 sequence (O43464 359-458): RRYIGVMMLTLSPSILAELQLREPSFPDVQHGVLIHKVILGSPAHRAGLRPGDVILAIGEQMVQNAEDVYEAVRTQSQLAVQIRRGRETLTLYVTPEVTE
Assay: Competition ELISA affinity assay: peptide blocks GST-Omi PDZ binding to immobilized biotinylated peptide
Conditions: for fold lower affinity (IC50 increase) relative to SWTMFWV (hOmi_c1): compared with peptide SWTMFWV (hOmi_c1); for IC50 / IC50 (μM): competition ELISA
Protocol: Affinity Assays—The binding affinities of peptides for Omi PDZ were determined as IC50 values using a previously described competition ELISA (18). […] Assay plates were prepared by immobilizing an amino-terminally biotinylated peptide (biotin-GWTMFWV) on maxisorp plates coated with NeuTravidin and blocked with BSA. A fixed concentration of GST-Omi PDZ fusion protein (20 nM) in PBS, 0.5% BSA, 0.1% Tween 20 (PBT buffer) was preincubated for 1 h with serial dilutions of peptide and then transferred to the assay plates. After 1 h incubation, the plates were washed with PBS, 0.05% Tween 20, incubated for 30 min with HRP/anti-GST antibody (1:10,000) in PBT buffer, washed again, and detected with 3,3′,5,5′-Tetramethyl-benzidine/H2O2 (TMB) peroxidase substrate.
The binding affinity of this ligand to Omi PDZ was measured with ELISA competition assay. […] PDZ-opt is an optimized peptide ligand of Omi PDZ derived from a chemically synthesized peptide library (11) with totally different sequence motif from that of the ligands derived from phage libraries. […] Peptides from libC and peptides Mxi2 and PDZ-opt were synthesized with acetylated N termini and free C termini, unless indicated otherwise. Peptides from libN were synthesized with free N termini and amidation at C termini.

[1] = 20 nM GST-Omi PDZ, immobilized biotinylated high affinity peptide, mean, read-out: IC50
[2] = IC50 (μM), 20 nM GST-Omi PDZ, immobilized biotinylated high affinity peptide, mean
[3] = 20 nM GST-Omi PDZ, immobilized biotinylated high affinity peptide, mean

Compound: CC(=O)N[C@@H](Cc1ccccc1)C(=O)N[C@@H](Cc1c[nH]c2ccccc12)C(=O)N[C@H](C(=O)O)C(C)C [hOmi_c1_t4, F W V] (Ac-Phe-Trp-Val-OH)
fold lower affinity (IC50 increase) relative to SWTMFWV (hOmi_c1): > 30 fold
IC50 [1]: 118 ± 32.1 µM

fold lower affinity relative to SHWWGGWLG (hOmi_n1) (truncation series of SHWWGGWLG, C terminus amidated): 3 fold
Compound: NC(=O)[C@H](Cc1c[nH]c2ccccc12)NC(=O)[C@H](Cc1c[nH]c2ccccc12)NC(=O)[C@H](Cc1c[nH]cn1)NC(=O)[C@@H](N)CO [hOmi_n1_t5, S H W W] (H-SHWW-NH2)

IC50 [1]: 108 ± 32.2 µM
effect on binding to Omi PDZ, in words (SHWWGGWLG series) (truncations of SHWWGGWLG (libN), C terminus amidated): comparable affinity as tetrapeptide SHWW
Compound: NC(=O)[C@H](Cc1c[nH]c2ccccc12)NC(=O)[C@H](Cc1c[nH]c2ccccc12)NC(=O)[C@@H](N)Cc1c[nH]cn1 [hOmi_n1_t9, H W W] (H-His-Trp-Trp-NH2)

fold lower affinity (IC50 increase) relative to SWTMFWV (hOmi_c1): 5 fold
IC50 [1]: 17.6 ± 5.6 µM
Compound: Ac-GQYYFV-OH [PDZ-Opt, G Q Y Y F V, reference compound]

Compound: Ac-MDIELVMI [Mxi2, M D I E L V M I, reference compound]
IC50 [2]: > 500 µM

fold lower affinity (IC50 increase) relative to SWTMFWV (hOmi_c1): 50 fold
Compound: Ac-RFPHFWV-OH [hOmi_c2, R F P H F W V]

IC50 (unit printed in the cell (mM), read-out: IC50): > 1000 µM
Compound: Ac-SWTMFAV [hOmi_c1_A2, S W T M F A V]

Compound: Ac-SWTMFWV [hOmi_c1, S W T M F W V]
IC50 [2]: 3.3 µM

IC50 [1]: 17.6 ± 3.9 µM
Compound: H-SHWWGGWL-NH2 [hOmi_n1_t1, S H W W G G W L]

IC50 (μM) [3]: NDI
Compound: S H W W G (SHWWG) [hOmi_n1_t4]

IC50 (μM) [3]: NDI
Compound: SHAWGGWL [hOmi_n1_A3, S H A W G G W L]

IC50 (μM) [3]: NDI
Compound: SHWAGGWL [hOmi_n1_A2, S H W A G G W L]

IC50 (μM) [3]: NDI
Compound: SHWWGG [hOmi_n1_t3, S H W W G G]

Compound: SWTMFWV [hOmi_c3, S W T M F W V-CONH2]
IC50 (μM) [3]: NDI

IC50 (μM) [3]: NDI
Compound: WGGWLG [hOmi_n1_t8, W G G W L G]

IC50 (μM) [3]: NDI
Compound: WWGGWLG [hOmi_n1_t7, W W G G W L G]
